In US8580918B2, “Peptidic GLP-2 agonists” (Ferring B.V., priority 2009, dated 2013):
Read-outs that look alike come from different tables or passages of the source. Where a SMILES comes first, the peptide text is derived from it. Where no end group is shown, it is not given here. [ ]: non-standard residue; d: D form. dPhe(3-Cl) = N[C@H](Cc1cccc(Cl)c1)C(=O)O; d2Thi = N[C@H](Cc1cccs1)C(=O)O; Nle = CCCC[C@H](N)C(=O)O

Columns and labels:
[1] = Pharmacokinetics in rats after intravenous bolus injection (systemic clearance); type: in vivo; conditions: rat, adult male Sprague-Dawley rats, i.v. bolus, read-out: CL (ml/kg/min) Average
Method in brief: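 Systemic clearance from noncompartmental analysis as dose per kg over trapezoidal AUC extrapolated to infinity, mean and SD across animals. Plasma (K2EDTA) levels by LC/MS/MS after single IV jugular-vein bolus, 0.1-1.0 mg/kg, in 3-4 cannulated male Sprague-Dawley rats.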

[2] = in humans; cited from earlier work
[3] = plasma, 0.2 mg FB/kg, dose 0.20 mg FB/kg

Row | clearance [1, 3] | Compound | other results
1 | 0.24 mL/kg/min | CCCC[C@H](NC(=O)[C@H](CCC(=O)O)NC(=O)[C@H](CC(=O)O)NC(=O)[C@H](CO)NC(=O)[C@H](Cc1ccccc1)NC(=O)[C@H](CO)NC(=O)CNC(=O)[C@H](CC(=O)O)NC(=O)CNC(=O)[C@@H](N)Cc1c[nH]cn1)C(=O)N[C@H](Cc1ccccc1)C(=O)N[C@H](C(=O)N[C@H](C(=O)N[C@@H](CC(C)C)C(=O)N[C@@H](CC(=O)O)C(=O)N[C@@H](Cc1ccccc1)C(=O)N[C@@H](CC(C)C)C(=O)N[C@@H](C)C(=O)N[C@@H](C)C(=O)N[C@@H](CCCNC(=N)N)C(=O)N[C@@H](CC(=O)O)C(=O)N[C@@H](Cc1ccccc1)C(=O)N[C@H](C(=O)N[C@@H](CC(N)=O)C(=O)N[C@@H](Cc1c[nH]c2ccccc12)C(=O)N[C@@H](CC(C)C)C(=O)N[C@H](C(=O)N[C@@H](CCC(N)=O)C(=O)N[C@H](C(=O)N[C@@H](CCCCN)C(=O)N[C@H](C(=O)N[C@H](C(=O)N[C@@H](CC(=O)O)C(N)=O)[C@@H](C)O)[C@@H](C)CC)[C@@H](C)O)[C@@H](C)CC)[C@@H](C)CC)[C@@H](C)CC)[C@@H](C)O [Compound 63, [Gly2,Nle10,D-Phe11,Phe16] hGLP-2(1-33)-NH2] (H-HGDGSFSDE[Nle][dF]TILDFLAARDFINWLIQTKITD-NH2) | 
2 | 0.15 mL/kg/min | CCCC[C@H](NC(=O)[C@H](CCC(=O)O)NC(=O)[C@H](CC(=O)O)NC(=O)[C@H](CO)NC(=O)[C@H](Cc1ccccc1)NC(=O)[C@H](CO)NC(=O)CNC(=O)[C@H](CC(=O)O)NC(=O)CNC(=O)[C@@H](N)Cc1c[nH]cn1)C(=O)N[C@H](Cc1ccccc1)C(=O)N[C@H](C(=O)N[C@H](C(=O)N[C@@H](CC(C)C)C(=O)N[C@@H](CC(=O)O)C(=O)N[C@@H](Cc1ccccc1)C(=O)N[C@@H](CC(C)C)C(=O)N[C@@H](C)C(=O)N[C@@H](C)C(=O)N[C@@H](CCCNC(=N)N)C(=O)N[C@@H](CC(=O)O)C(=O)N[C@@H](Cc1ccccc1)C(=O)N[C@H](C(=O)N[C@@H](CC(N)=O)C(=O)N[C@@H](Cc1c[nH]c2ccccc12)C(=O)N[C@@H](CC(C)C)C(=O)N[C@H](C(=O)N[C@@H](CCC(N)=O)C(=O)N[C@H](C(=O)N[C@@H](CCCCN)C(=O)N[C@H](C(=O)N[C@H](C(=O)N[C@@H](CC(=O)O)C(=O)O)[C@@H](C)O)[C@@H](C)CC)[C@@H](C)O)[C@@H](C)CC)[C@@H](C)CC)[C@@H](C)CC)[C@@H](C)O [Compound 64, [Gly2,Nle10,D-Phe11,Phe16] hGLP-2(1-33)-OH] (H-HGDGSFSDE[Nle][dF]TILDFLAARDFINWLIQTKITD-OH) | 
3 | 0.12 mL/kg/min | CCCC[C@H](NC(=O)[C@H](CCC(=O)O)NC(=O)[C@H](CC(=O)O)NC(=O)[C@H](CO)NC(=O)[C@H](Cc1ccccc1)NC(=O)[C@H](CO)NC(=O)CNC(=O)[C@H](CC(=O)O)NC(=O)CNC(=O)[C@@H](N)Cc1c[nH]cn1)C(=O)N[C@H](Cc1cccc(Cl)c1)C(=O)N[C@H](C(=O)N[C@H](C(=O)N[C@@H](CC(C)C)C(=O)N[C@@H](CC(=O)O)C(=O)N[C@@H](Cc1ccccc1)C(=O)N[C@@H](CC(C)C)C(=O)N[C@@H](C)C(=O)N[C@@H](C)C(=O)N[C@@H](CCCNC(=N)N)C(=O)N[C@@H](CC(=O)O)C(=O)N[C@@H](Cc1ccccc1)C(=O)N[C@H](C(=O)N[C@@H](CC(N)=O)C(=O)N[C@@H](Cc1c[nH]c2ccccc12)C(=O)N[C@@H](CC(C)C)C(=O)N[C@H](C(=O)N[C@@H](CCC(N)=O)C(=O)N[C@H](C(=O)N[C@@H](CCCCN)C(=O)N[C@H](C(=O)N[C@H](C(=O)N[C@@H](CC(=O)O)C(N)=O)[C@@H](C)O)[C@@H](C)CC)[C@@H](C)O)[C@@H](C)CC)[C@@H](C)CC)[C@@H](C)CC)[C@@H](C)O [Compound 66, [Gly2,Nle10,D-3-Cpa11,Phe16] hGLP-2(1-33)-NH2] (H-HGDGSFSDE[Nle][dPhe(3-Cl)]TILDFLAARDFINWLIQTKITD-NH2) | 
4 | 0.15 mL/kg/min | CCCC[C@H](NC(=O)[C@H](CCC(=O)O)NC(=O)[C@H](CC(=O)O)NC(=O)[C@H](CO)NC(=O)[C@H](Cc1ccccc1)NC(=O)[C@H](CO)NC(=O)CNC(=O)[C@H](CC(=O)O)NC(=O)CNC(=O)[C@@H](N)Cc1c[nH]cn1)C(=O)N[C@H](Cc1cccs1)C(=O)N[C@H](C(=O)N[C@H](C(=O)N[C@@H](CC(C)C)C(=O)N[C@@H](CC(=O)O)C(=O)N[C@@H](Cc1ccccc1)C(=O)N[C@@H](CC(C)C)C(=O)N[C@@H](C)C(=O)N[C@@H](C)C(=O)N[C@@H](CCCNC(=N)N)C(=O)N[C@@H](CC(=O)O)C(=O)N[C@@H](Cc1ccccc1)C(=O)N[C@H](C(=O)N[C@@H](CC(N)=O)C(=O)N[C@@H](Cc1c[nH]c2ccccc12)C(=O)N[C@@H](CC(C)C)C(=O)N[C@H](C(=O)N[C@@H](CCC(N)=O)C(=O)N[C@H](C(=O)N[C@@H](CCCCN)C(=O)N[C@H](C(=O)N[C@H](C(=O)N[C@@H](CC(=O)O)C(N)=O)[C@@H](C)O)[C@@H](C)CC)[C@@H](C)O)[C@@H](C)CC)[C@@H](C)CC)[C@@H](C)CC)[C@@H](C)O [Compound 68, [Gly2,Nle10,D-Thi11,Phe16] hGLP-2(1-33)-NH2] (H-HGDGSFSDE[Nle][d2Thi]TILDFLAARDFINWLIQTKITD-NH2) | 
5 |  | CC[C@H](C)[C@H](NC(=O)[C@H](Cc1ccccc1)NC(=O)[C@H](CC(=O)O)NC(=O)[C@H](CCCN=C(N)N)NC(=O)[C@H](C)NC(=O)[C@H](C)NC(=O)[C@H](CC(C)C)NC(=O)[C@H](CC(N)=O)NC(=O)[C@H](CC(=O)O)NC(=O)[C@H](CC(C)C)NC(=O)[C@@H](NC(=O)[C@@H](NC(=O)[C@H](CC(N)=O)NC(=O)[C@H](CCSC)NC(=O)[C@H](CCC(=O)O)NC(=O)[C@H](CC(=O)O)NC(=O)[C@H](CO)NC(=O)[C@H](Cc1ccccc1)NC(=O)[C@H](CO)NC(=O)CNC(=O)[C@H](CC(=O)O)NC(=O)[C@H](C)NC(=O)[C@@H](N)Cc1cnc[nH]1)[C@@H](C)O)[C@@H](C)CC)C(=O)N[C@@H](CC(N)=O)C(=O)N[C@@H](Cc1c[nH]c2ccccc12)C(=O)N[C@@H](CC(C)C)C(=O)N[C@H](C(=O)N[C@@H](CCC(N)=O)C(=O)N[C@H](C(=O)N[C@@H](CCCCN)C(=O)N[C@H](C(=O)N[C@H](C(=O)N[C@@H](CC(=O)O)C(=O)O)[C@@H](C)O)[C@@H](C)CC)[C@@H](C)O)[C@@H](C)CC [hGLP-2, reference compound] | clearance ([1]; plasma, dose 1.0 mg FB/kg): 24.6 mL/kg/min; half-life (t1/2) [2]: 10 min
6 | 9.9 mL/kg/min | CC[C@H](C)[C@H](NC(=O)[C@H](Cc1ccccc1)NC(=O)[C@H](CC(=O)O)NC(=O)[C@H](CCCNC(=N)N)NC(=O)[C@H](C)NC(=O)[C@H](C)NC(=O)[C@H](CC(C)C)NC(=O)[C@H](CC(N)=O)NC(=O)[C@H](CC(=O)O)NC(=O)[C@H](CC(C)C)NC(=O)[C@@H](NC(=O)[C@@H](NC(=O)[C@H](CC(N)=O)NC(=O)[C@H](CCSC)NC(=O)[C@H](CCC(=O)O)NC(=O)[C@H](CC(=O)O)NC(=O)[C@H](CO)NC(=O)[C@H](Cc1ccccc1)NC(=O)[C@H](CO)NC(=O)CNC(=O)[C@H](CC(=O)O)NC(=O)CNC(=O)[C@@H](N)Cc1c[nH]cn1)[C@@H](C)O)[C@@H](C)CC)C(=O)N[C@@H](CC(N)=O)C(=O)N[C@@H](Cc1c[nH]c2ccccc12)C(=O)N[C@@H](CC(C)C)C(=O)N[C@H](C(=O)N[C@@H](CCC(N)=O)C(=O)N[C@H](C(=O)N[C@@H](CCCCN)C(=O)N[C@H](C(=O)N[C@H](C(=O)N[C@@H](CC(=O)O)C(=O)O)[C@@H](C)O)[C@@H](C)CC)[C@@H](C)O)[C@@H](C)CC [teduglutide, [Gly2]hGLP 2, reference compound] | clearance ([1]; plasma, dose 1.0 mg FB/kg): 8 mL/kg/min
7 |  | HGEGSFSSELSTILDALAARDFIAWLIATKITDKKKKKK-NH2 (C-terminus assumed) [ZP-1846, reference compound] | clearance ([1]; in vivo, dose 0.20 mg FB/kg): 2.8 mL/kg/min
8 | 2.4 mL/kg/min | HGEGTFSSELATILDALAARDFIAWLIATKITDKKKKKK-NH2 [ZP-1848, reference compound] | 
